Reference: patent publication US9732078B2, “Therapeutic use of imidazopyridine derivatives” (SANOFI, priority 2012, dated 2017)

Tests used:
Format in all cases: cell-based
[1] = tested on: TCC97-7 bladder cancer cells carrying the Ser249Cys mutation of FGF receptor 3; assay: Reduction of intracellular ATP content of TCC97-7 cells (Cell Titer-Glo, 3 days, serum-supplemented medium); conditions: TCC97-7 cells in presence of serum
Protocol: Evaluation of the Capacity of the FGF-R Antagonists to Reduce the ATP Content of TCC97-7 Bladder Cancer Cells Carrying the Ser249Cys Mutation of FGF Receptor 3, Cultured in a Serum-Supplemented Medium
To do this, 3000 cells are seeded in 50 μl of complete medium (Ham-F/12, 1% FCS, […], non-essential amino acids, sodium pyruvate, 1% insulin/transferrin/selenium, hydrocortisone). 16 hours later, 50 μl of the various compounds are added at 0.2, 2, 20 and 60 μM after dilution in complete culture medium in order to obtain final concentrations of 0.1, 1, 10 and 30 μM. After 3 days, the ATP content of the cells is measured using the Cell Titer-Glo® Luminescent Cell Viability Assay kit (Promega, France) according to the supplier's recommendations. The percentage inhibition of the amount of intracellular ATP is calculated by considering the ATP content of the cells cultured in the absence of antagonist to be 0% inhibition. 100% inhibition would correspond to a well in which the ATP content is zero.

[2] = tested on: TCC97-7 bladder cancer tumour cells carrying the Ser249Cys mutation of FGF receptor 3; assay: Cytotoxic effect: percentage of permeabilized (very fluorescent, Hoechst 33342) TCC97-7 cells; conditions: 3 days
Protocol: In parallel to their antiproliferative capacity, the potential cytotoxic effect of the FGF-R antagonists is measured by means of quantifying the number of cells of which the membranes are permeabilized. The appearance of pores in the plasma membrane of the cells corresponds to a state of cell death which enables the Hoechst 33342 to penetrate more easily into the cell. This is reflected by a very strong increase in the amount of fluorescence detected in the nuclei. The percentage of cells in a state of cell death is calculated by the ratio between the number of very fluorescent nuclei to the total number of nuclei, multiplied by 100. The observations are carried out in the same way as the quantification of the nuclei for the cell proliferation.

[3] = tested on: TCC97-7 bladder cancer tumour cells carrying the Ser249Cys mutation of FGF receptor 3; assay: Inhibition of serum-induced proliferation of TCC97-7 bladder cancer cells (count of Hoechst 33342-labelled nuclei after 3 days); conditions: TCC97-7 cells in presence of serum
Protocol: To do this, 2000 cells are seeded in the morning in 50 μl of complete medium (Ham-F/12, 1% FCS, 2 mM glutamine, non-essential amino acids, sodium pyruvate, 1% insulin/transferrin/selenium, hydrocortisone). In the evening, 50 μl of the various compounds are added at 0.02, 0.2, 2 or 20 μM after dilution in complete culture medium in order to obtain final concentrations of 0.01, 0.1, 1 and 10 μM. After 3 days, the cell proliferation is evaluated by measuring the number of nuclei at the bottom of each well corresponding to a number of cells. The nuclei are detected by means of labelling with Hoechst 33342 (Invitrogen, ref H3570). 100 μl of Hoechst 33342 diluted to 1/5000th in PBS are added to each well for 30 min at ambient temperature on non-fixed cells. The nuclei are detected by fluorescence at 350 nm at ×2 magnification with an Operetta (PerkinElmer) using the Acapella (PerkinElmer) imaging software and analysed using the Columbus (PerkinElmer) image analysis software. The percentage inhibition of the cell proliferation is calculated by considering the number of nuclei present in the wells in which the TCC97-7 cells are cultured in the absence of FGF-R antagonists to be 0% inhibition. 100% inhibition would correspond to a well no longer containing cells.

Compound | Inhibition of the amount of intracellular ATP (%) ([1]; 0.1 μM) | Inhibition of the amount of intracellular ATP (%) ([1]; 1 μM) | Inhibition of the amount of intracellular ATP (%) ([1]; 10 μM) | Cytotoxicity (% of permeable cells) ([2]; 0.01 μM) [%] | Cytotoxicity (% of permeable cells) ([2]; 0.1 μM) [%] | Cytotoxicity (% of permeable cells) ([2]; 1 μM) [%] | Cytotoxicity (% of permeable cells) ([2]; 10 μM) [%] | Inhibition of proliferation (%) ([3]; 0.1 μM) | Inhibition of proliferation (%) ([3]; 1 μM) | Inhibition of proliferation (%) ([3]; 10 μM) | Inhibition of proliferation (%) ([3]; 0.01 μM)
Cn1c(=O)n(Cc2ccc(F)cc2)c(=O)c2cc(C(=O)c3nc(-c4cccc(C(=O)[O-])c4)c4ccccn34)ccc21.[Na+] [compound 49, Sodium salt of 3-(3-{[3-(4-fluorobenzyl)-1-methyl-2,4-dioxo-1,2,3,4-tetrahydroquinazolin-6-yl]carbonyl}imidazo[1,5-a]pyridin-1-yl)benzoic acid] | −2 | 14 | 67 | 5 | 5 | 6 | 12 | 9 | 55 | 81 | 
COCn1c(=O)n(Cc2ccc(F)cc2)c(=O)c2cc(C(=O)c3nc(-c4cccc(C(=O)[O-])c4)c4ccccn34)ccc21.[Na+] [compound 71] | −4 | −1 | 94 | 4 | 4 | 5 | 1 | 1 | 14 | 85 | 0
CCOC(=O)c1cccc(-c2nc(C(=O)c3ccc4c(c3)c(=O)n(Cc3ccc(F)cc3)c(=O)n4C)n3ccccc23)c1 [compound 79] | −6 | 7 | 72 | 1 | 1 | 2 | 10 | 0 | 17 | 71 | 5
Cn1c(=O)n(Cc2cccc(F)c2)c(=O)c2cc(C(=O)c3nc(-c4cccc(C(N)=O)c4)c4ccccn34)ccc21 [compound 108] |  |  |  | 4 | 5 | 4 | 4 | −5 | 6 | 22 | −4
Cc1nnc(-c2cccc(-c3nc(C(=O)c4ccc5c(c4)c(=O)n(Cc4ccc(F)cc4)c(=O)n5C)n4ccccc34)c2)o1 [compound 140] |  |  |  | 1 | 1 | 1 | 2 | −1 | −7 | 26 | 0
Cn1c(=O)n(CCc2ccc(F)cc2)c(=O)c2cc(C(=O)c3nc(-c4cccc(C(=O)[O-])c4)c4ccccn34)ccc21.[Na+] [compound 148] | 1 | 8 | 66 | 4 | 4 | 4 | 11 | 6 | 15 | 81 | 12
CCCn1c(=O)n(CCCC(C)C)c(=O)c2cc(C(=O)c3nc(-c4cccc(C(=O)[O-])c4)c4ccccn34)ccc21.[Na+] [compound 207] | 10 | 23 | 62 | 5 | 4 | 5 | 23 | 7 | 45 | 82 | 2
